# Laboratory results reported in patent publication US20220308062A1, “METHODS FOR PREDICTING DRUG RESPONSIVENESS IN SAMPLES FROM CANCER SUBJECTS” (Board of Regents, The University of Texas System, priority 2019, published 2022).
# What was measured:
# Format in all cases: cell-based, human
# A549 and H2009 cells [1] = experiment: Capillary Western immunoassay (WES)
# Description: Capillary Western immunoassay. Protein lysates of A549 lung cancer cells were prepared in radioimmunoprecipitation assay buffer (Thermo Fisher Scientific). Proteins with 12-230 kDa were analyzed in the Western immunoassay (WES) Separation Module of the quantitative capillary Western immunoassay system (ProteinSimple, San Jose, Calif.). The following antibodies were used: (i) β-catenin, AXL, AKT, C-RAF, p38 MAPK, MEK1/2, P42/44 MAPK, SMAD2/3, SMAD4, and GAPDH from Cell Signaling Technology (Danvers, Mass.); (ii) p-AXL from R&D Systems (Minneapolis, Minn.); (iii) vimentin, YAP1, TAZ, CK8/18 and CK19 from Novus Biologicals (Centennial, Colo.); (iv) N-cadherin from Abcam (Cambridge); (v) E-cadherin from BD Biosciences (San Jose, Calif.). Protein expression levels were normalized with that of GAPDH.
# Capillary Western immunoassay (WES). Protein lysates of A549 and H2009 cells were prepared in radio-immunoprecipitation assay buffer (Thermo Fisher Scientific). Proteins were then analyzed in 12-230 and 66-440 kDa WES separation module of quantitative capillary Western immunoassay system (Protein Simple). The following antibodies were used: 1) AXL, AKT, JNK, p38 MAPK, MEK1/2, P42/44 MAPK, and GAPDH (Cell Signaling Technology); and 2) p-AXL and YAP1 (R&D Systems). Protein expression levels were normalized with GAPDH as loading controls.
# Materials and methods. Capillary Western immunoassay (WES). Protein lysates of A549 and H2009 cells were prepared in radio-immunoprecipitation assay buffer (Thermo Fisher Scientific). Proteins were then analyzed in 12-230 and 66-440 kDa WES separation module of quantitative capillary Western immunoassay system (Protein Simple). Antibodies against AXL and GAPDH were (Cell Signaling Technology). Protein expression levels were normalized with GAPDH as loading controls.
# A549 and H2009 cells [2] = experiment: CellTiter-Glo cell viability, TP-0903 and/or ruxolitinib; conditions: 20, 30 and 40 nmol/L, 72 hr
# Description: Cell lines. A549 and H2009 cell lines were obtained from and authenticated by the American Type Culture Collection, and routinely maintained in RPMI-1640 medium supplemented 10% FBS, penicillin (100 units/mL) and streptomycin ([…]) in aired with 5% CO^2 at 37° C. The absence of Mycoplasma contamination was validated using DAPI staining. […] The CellTiter-Glo Luminescent Cell Viability assay was used to determine cell responsiveness. shRNA knockdown was performed in A549 cells by using lentiviral delivery of short-hairpin AXL or vehicle plasmid pLKO.1 puro in two biological repeats (Addgene; Table 3).
# A549 cells = experiment: Atomic force microscopy, A549; conditions: A549, 40 nmol/L, 24 hr
# Text: Atomic force microscopy. […] Briefly, live cells cultured were imaged in 60 mm dishes with a Nanoscope Catalyst AFM (Bruker, Billerica, Mass.) mounted on a Nikon Ti inverted epifluorescent microscope. […] To collect the nanomechanical phenotypes of single cells immersed in culture media, 30×30 μm images were captured with a resolution of 256×256 pixels using the PeakForce Quantitative Nanomechanical Mapping (QNM) AFM (Bruker, Billerica, Mass.). For imaging, […]-AIR (Bruker, Billerica, Mass.) probes were applied with the nominal spring constant 0.4 N/m. Following the Sneddon model and the Sokolov's rules, nanomechanical parameters were calculated with Nanoscope Analysis software v.1.7 (Bruker, Billerica, Mass.) using retrace images. Images of at least 15 cells representing each tested case in three biological replicates were collected.
# Atomic force microscopy (AFM). […] Briefly, live cells cultured in 60 mm dishes were imaged with a Nanoscope Catalyst AFM (Bruker) mounted on a Nikon Ti inverted epifluorescent microscope. […] To collect the nanomechanical phenotypes of single cells immersed in culture media, 30×30 μm images were captured with a resolution of 256×256 pixels using the Peak Force Quantitative Nanomechanical Mapping (QNM) AFM (Bruker). For imaging, […]-AIR probes were used with the nominal spring constant 0.4 N/m. Following the Sneddon model and the Sokolov's rules, nanomechanical parameters were calculated with Nanoscope Analysis software v.1.7 using retrace images.
# [3] = system: A549, H2009 and H226 cell lines; experiment: Wound healing (migration) assay
# Description: Analysis was performed using IncuCyte ZOOM (Essen BioScience) with images acquired every 3 hr for up to 72 hr. Four images (proliferation) and one image (wound healing) were captured per well for each time point. Data were normalized to controls, and values for 50% effective concentration were calculated using Prism V7.0 (GraphPad software, San Diego, Calif.).
# In vitro phenotypic assay. […] Proliferation and migration curves were generated using IncuCyte ZOOM (Essen BioScience) with images acquired every 3 hr over a 72 hr timeframe. Images were captured per well for each time point. Data were normalized to controls, and values for 50% inhibitory concentration were calculated using Prism V8.0 (GraphPad software).
structure (smiles),measurement,setting,value
CN1CCN(Cc2ccc(Nc3ncc(Cl)c(Nc4ccccc4S(=O)(=O)N(C)C)n3)cc2)CC1 [TP-0903],AXL level (WES),"A549 and H2009 cells [1]; A549, 40 nmol/L",down-regulated
same,cytokeratin 19 (CK19) level,"A549 and H2009 cells [1]; A549 and H2009, 40 nM",noticeable increase
same,vimentin level,"A549 and H2009 cells [1]; A549 and H2009, 40 nM",minor decrease
same,"protein levels of AXL, phosphorylated AXL, SMAD2/3, SMAD4, YAP1, and TAZ","A549 and H2009 cells [1]; A549 and H2009, 40 nmol/L",reduced
same,"sensitivity (cell viability), A549 compared with H2009",A549 and H2009 cells [2],more sensitive
same,decreased deformation,A549 cells,25%
same,increase in stiffness,A549 cells,3 fold
same,increased adhesion,A549 cells,50%
same,cytotoxicity based on cell morphology,"[3]; A549 and H2009, increasing concentrations",did not result in significant cytotoxicity
same,migration potential,"[3]; increasing concentrations, 0-200 nM",significantly impeded
